Here are results for seven compounds from ChEMBL document CHEMBL4715804, “A Fluorescence Polarization Biophysical Assay for the Naegleria DNA Hydroxylase Tet1” (ACS Med Chem Lett, 2016).

Assay [1] is described as follows: Displacement of sodium 5-(3-(8-(3-carboxy-N-hydroxyacrylamido)octyl)thioureido)-2-(6-hydroxy-3-oxo-3H-xanthen-9-yl)benzoate from Naegleria Tet-1 incubated for 20 mins followed by sodium 5-(3-(8-(3-carboxy-N-hydroxyacrylamido)octyl)thioureido)-2-(6-hydroxy-3-oxo-3H-xanthen-9-yl)benzoate addition and further incubated 4 hrs and measured upto 20 hrs by competition fluorescence polarization assay.

A further assay concerns Naegleria. Nature of the assay: Displacement of sodium 5-(3-(8-(3-carboxy-N-hydroxyacrylamido)octyl)thioureido)-2-(6-hydroxy-3-oxo-3H-xanthen-9-yl)benzoate from Naegleria Tet-1 at 5 mM incubated for 20 mins followed by sodium 5-(3-(8-(3-carboxy-N-hydroxyacrylamido)octyl)thioureido)-2-(6-hydroxy-3-oxo-3H-xanthen-9-yl)benzoate addition and further incubated 4 hrs and measured upto 20 hrs by competition fluorescence polarization assay. Conditions: time hrs <=20.

Assay [2] is described as follows: Binding affinity to Naegleria Tet1 assessed as dissociation constant incubated for 4 hrs and measured upto 20 hrs by fluorescence polarization assay. In general terms: Fluorescence polarisation rises when a labelled molecule tumbles more slowly, as on binding a larger partner.

Molecules are shown by their SMILES. The source made the active and inactive calls. The rule behind the calls is not given here.

The term IC50 denotes the midpoint of a concentration-inhibition curve. A lower IC50 goes with greater potency in that assay. In general, Ki refers to the equilibrium dissociation constant of an inhibitor or competing ligand from its target. A low value points to tighter binding. One may read the Kd as the constant that tells how readily two partners part at equilibrium.

In assay [1], `O=C(O)CNC(=O)C(=O)O` [N-OXALYLGLYCINE] came in with a half-inhibitory concentration (IC50) of 49 µM and a Ki of 16 µM.

Consider `Cc1cn([C@H]2C[C@H](O)[C@@H](CO)O2)c(=O)nc1N`, for which, in the assay with Naegleria, the inhibition result was “inactive”.

In assay [1], `O=C(O)c1ccnc(C(=O)O)c1` displayed an IC50 of 27 µM and a Ki of 9 µM.

As to `O=C(O)CCC(=O)C(=O)O` [ALPHA-KETOGLUTARIC ACID], in assay [1], the IC50 stood at 250 µM and affinity was put at a Ki of 83 µM.

With `Nc1nc(=O)n([C@H]2C[C@H](O)[C@@H](CO)O2)cc1CO`, the inhibition entry in the assay on Naegleria is “inactive”.

`O=C(O)/C=C/C(=O)N(O)CCCCCCCCNC(=S)Nc1ccc(-c2c3ccc(=O)cc-3oc3cc(O)ccc23)c(C(=O)O)c1`: in assay [2], the dissociation constant (Kd) came out at 250 nM.

In assay [1], `O=C(O)CC[C@@H](O)C(=O)O` gave a half-maximal inhibitory concentration (IC50) of 5200 µM and an inhibitory constant (Ki) of 1700 µM.
